# Test results taken from publication PMC12070228, “Investigations of Enteric-Coated Tablet Propyl Gallate-Induced Nephrotoxicity in Beagles as well as Human and Dog Renal Proximal Tubule Epithelial Cells” (ACS Pharmacology & Translational Science, 2025).
# Like-named read-outs stand apart in the source and are kept apart here.
# Assay: PG toxicokinetics in dog plasma (LC-MS/MS), studies 001-005
# Format: in vivo
# Settings: beagle, po
# Description: Samples were vortexed and centrifuged before injection.
# The total run time was 5.5 min.
# The targeted quantitation of PG and phase-I/II metabolites was conducted using peak area ratio of analytes and internal standards in MultiQuant software (SCIEX).
# In the follow-up 4-week study (study 003), dogs received EC tablets consisting of the clinical formulation excipients minus PG, clinical formulation excipients minus NaCDC, or PG alone in a gelatin capsule once daily for 26 days. […] Samples for PG toxicokinetics were collected on days 1 and 22 of the dosing-phase at predose (Day 22 only) and 0.5, 1, 2, 4, 6, 8, 12, and 24 h postdose. […] Plasma samples for the measurement of lipopolysaccharide (LPS) were taken twice in the pretest period, predose and 2 h after dosing on Days 15 and 22, and prior to necropsy. LPS concentrations were measured using a qualified sandwich ELISA method (LSBiosciences) with a detection range of 7.82 to 500 pg/mL.
# Table S2. Correlation of PG exposure with nephrotoxicity.
# AUC0-24 = area under the concentration versus time curve from time 0 to 24 hours; clin = clinical; F = female; M = male; NR = no result due to insufficient data. […]
# a Clinical formulation excipients included sodium chenodeoxycholate (Na CDC), propyl gallate (PG), tris(hydroxymethyl)aminomethane (Tris)(except for Study 005), mannitol, crospovidone, aerosil, sodium stearyl fumarate, eudragit, and plasarcryl. b Study 001: Initial 4-week investigational new drug (IND)-enabling good laboratory practice (GLP) study c Study 002: Investigative 4-week study with different excipient combinations d Study 003: Follow-up investigative 4-week study with non-enteric coated capsule e Study 004: 3-month GLP study f Study 005: 9-month GLP study g Day 7 AUC value is presented; AUC could not be calculated for Day 28 samples due to insufficient data. h Minimal nephropathy observed in 2 recovery (4 weeks) group females, but not in main group animals.
structure (smiles),measurement,setting,value
"CCCOC(=O)c1cc(O)c(O)c(O)c1 [PG, propyl gallate]",AUC(0-t),"12.5 mg/kg/day, PG 12.5, NaCDC 10, MEDI7219 0.75 mg/kg/day, clin excipients, Study 005 Day 112, read-out: Propyl Gallate Exposure (AUC0-24)",72 ng·h/mL
same,AUC(0-t),"12.5 mg/kg/day, PG 12.5, NaCDC 10, MEDI7219 0.75 mg/kg/day, clin excipients, Study 005 Day 196, read-out: Propyl Gallate Exposure (AUC0-24)",88 ng·h/mL
same,AUC(0-t),"12.5 mg/kg/day, PG 12.5, NaCDC 10, MEDI7219 0.75 mg/kg/day, clin excipients, Study 005 Day 266, read-out: Propyl Gallate Exposure (AUC0-24)",90 ng·h/mL
same,AUC(0-t),"14 mg/kg/day, PG 14, NaCDC 7, MEDI7219 0.4 mg/kg/day, clin excipients, Study 004 Day 78, read-out: Propyl Gallate Exposure (AUC0-24)",101 ng·h/mL
same,AUC(0-t),"200 mg/kg/day, PG 200, NaCDC 0, MEDI7219 0 mg/kg/day, clin excipients minus NaCDC and Tris, Study 002 Day 14, read-out: Propyl Gallate Exposure (AUC0-24)",1890 ng·h/mL
same,AUC(0-t),"200 mg/kg/day, PG 200, NaCDC 0, MEDI7219 0 mg/kg/day, clin excipients minus NaCDC and Tris, Study 002 Day 21, read-out: Propyl Gallate Exposure (AUC0-24)",4840 ng·h/mL
same,AUC(0-t),"200 mg/kg/day, PG 200, NaCDC 0, MEDI7219 0 mg/kg/day, clin excipients minus NaCDC, Study 002 Day 14, read-out: Propyl Gallate Exposure (AUC0-24)",2580 ng·h/mL
same,AUC(0-t),"200 mg/kg/day, PG 200, NaCDC 0, MEDI7219 0 mg/kg/day, clin excipients minus NaCDC, Study 002 Day 21, read-out: Propyl Gallate Exposure (AUC0-24)",1850 ng·h/mL
same,AUC(0-t),"200 mg/kg/day, PG 200, NaCDC 0, MEDI7219 0 mg/kg/day, clin excipients minus NaCDC, Study 003 Day 22, read-out: Propyl Gallate Exposure (AUC0-24)",6290 ng·h/mL
same,AUC(0-t),"200 mg/kg/day, PG 200, NaCDC 0, MEDI7219 0 mg/kg/day, gelatin capsule (PG only), Study 003 Day 22, read-out: Propyl Gallate Exposure (AUC0-24)",1980 ng·h/mL
same,AUC(0-t),"200 mg/kg/day, PG 200, NaCDC 100, MEDI7219 0 mg/kg/day, clin excipients minus Tris, Study 002 Day 14, read-out: Propyl Gallate Exposure (AUC0-24)",2760 ng·h/mL
same,AUC(0-t),"200 mg/kg/day, PG 200, NaCDC 100, MEDI7219 0 mg/kg/day, clin excipients minus Tris, Study 002 Day 21, read-out: Propyl Gallate Exposure (AUC0-24)",1800 ng·h/mL
same,AUC(0-t),"200 mg/kg/day, PG 200, NaCDC 100, MEDI7219 0 mg/kg/day, clin excipients, Study 002 Day 14, read-out: Propyl Gallate Exposure (AUC0-24)",3250 ng·h/mL
same,AUC(0-t),"200 mg/kg/day, PG 200, NaCDC 100, MEDI7219 2 mg/kg/day, clin excipients, Study 001 Day 28, read-out: Propyl Gallate Exposure (AUC0-24)",1210 ng·h/mL
same,AUC(0-t),"PG 25, NaCDC 20, MEDI7219 0.25 mg/kg/day, clin excipients, Study 005 Day 112, read-out: Propyl Gallate Exposure (AUC0-24)",135 ng·h/mL
same,AUC(0-t),"PG 25, NaCDC 20, MEDI7219 0.25 mg/kg/day, clin excipients, Study 005 Day 196, read-out: Propyl Gallate Exposure (AUC0-24)",232 ng·h/mL
same,AUC(0-t),"PG 36, NaCDC 18, MEDI7219 1.1 mg/kg/day, clin excipients, Study 004 Day 78, read-out: Propyl Gallate Exposure (AUC0-24)",282 ng·h/mL
same,AUC(0-t),"PG 44, NaCDC 22, MEDI7219 0 mg/kg/day, clin excipients, Study 005 Day 196, read-out: Propyl Gallate Exposure (AUC0-24)",864 ng·h/mL
same,AUC(0-t),"PG 44, NaCDC 35, MEDI7219 2.6 mg/kg/day, clin excipients, Study 005 Day 196, read-out: Propyl Gallate Exposure (AUC0-24)",1870 ng·h/mL
same,AUC(0-t),"PG 60, NaCDC 48, MEDI7219 0 mg/kg/day, clin excipients, Study 005 Day 112, read-out: Propyl Gallate Exposure (AUC0-24)",3610 ng·h/mL
same,AUC(0-t),"PG 60, NaCDC 48, MEDI7219 3.6 mg/kg/day, clin excipients, Study 005 Day 112, read-out: Propyl Gallate Exposure (AUC0-24)",829 ng·h/mL
same,AUC(0-t),"PG 76, NaCDC 38, MEDI7219 0.75 mg/kg/day, clin excipients, Study 001 Day 28, read-out: Propyl Gallate Exposure (AUC0-24)",618 ng·h/mL
same,AUC(0-t),"PG 100, NaCDC 50, MEDI7219 0 mg/kg/day, clin excipients, Study 004 Day 78, read-out: Propyl Gallate Exposure (AUC0-24)",1830 ng·h/mL
same,AUC(0-t),"PG 100, NaCDC 50, MEDI7219 3 mg/kg/day, clin excipients, Study 004 Day 78, read-out: Propyl Gallate Exposure (AUC0-24)",767 ng·h/mL
same,AUC(0-t),"PG 200, NaCDC 100, MEDI7219 0 mg/kg/day, clin excipients, Study 001, Day 28 column but Day 7 AUC value is presented (footnote g), read-out: Propyl Gallate Exposure (AUC0-24)",2560 ng·h/mL
same,AUC(0-t),"female, 25 mg/kg/day, female (F), PG 25, NaCDC 20, MEDI7219 0.25 mg/kg/day, clin excipients, Study 005 Day 266, read-out: Propyl Gallate Exposure (AUC0-24)",986 ng·h/mL
same,AUC(0-t),"male, 25 mg/kg/day, male (M), PG 25, NaCDC 20, MEDI7219 0.25 mg/kg/day, clin excipients, Study 005 Day 266, read-out: Propyl Gallate Exposure (AUC0-24)",158 ng·h/mL
